The values that follow come from PubChem BioAssay AID743417 (Broad Institute, 2014).

By AC50 is commonly meant the concentration at which the activity in the assay is half-maximal.

Records with an inconclusive call do not appear. The source made the active and inactive calls.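 Rule for the calls: active = compounds lowering the luciferase signal with a fitted half-maximal dose at most twice their top valid dose (cut at about 30 µM in these data); inconclusive = flat fits with moderate signal loss, or poor fits; inactive = the rest.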

The assay concerns Clone20 osteoblast Shn3 3'UTR firefly luciferase, 24 h. The assay can be described thus: Schnurri-3 3'UTR-luciferase signal suppressors – cell-based, Clone20 osteoblasts, luminescence, dry powder, set 2, dose response (AID 743417).
For `CC1CC(C)(O)CC(C(O)CC2CC(=O)NC(=O)C2)C1=O` (centres undefined), the AC50 is 339 nM. Regarding `Cc1cc(Nc2ccccc2)nc(NCc2ccccc2)n1`, the concentration at half-maximal activity (AC50) is 1040 nM. With `COCCNc1nc(NCc2ccc(C(C)C)cc2)c2sccc2n1`, the AC50 was 3950 nM. On to `Cc1nnc(NC(=O)c2nc(S(=O)(=O)Cc3ccccc3C)ncc2Cl)s1`, for which the AC50 was 812 nM. As for `Cc1cccc(C)c1NC(=O)c1nc(S(=O)(=O)Cc2ccccc2)ncc1Cl`, the figure is 4330 nM; as for `O=c1[nH]c2ccccc2n1C1CCN(C(c2cccs2)c2nnnn2Cc2ccccc2)CC1` (centres undefined), 2980 nM.

As for `CC(=O)c1c(C)[nH]c(C(=O)OCC(=O)Nc2ccc(Cl)cc2[N+](=O)[O-])c1C`, the AC50 is 325 nM.

With `CCCc1nnc(NC(=O)c2nc(S(=O)(=O)Cc3cccc(C)c3)ncc2Cl)s1`, the AC50 was 2550 nM. Consider `COc1ccc(/C=C/C(=O)NC(=S)NNC(=O)c2cnccn2)cc1`, for which the half-maximal activity concentration (AC50) is 15500 nM. Regarding `c1coc(CN(Cc2ccco2)c2ncnc3c2oc2ccccc23)c1`, the AC50 is 5450 nM.

For the compound `COc1ccccc1CNc1nc(NCc2ccccc2SC)c2sccc2n1`, the AC50 is 4480 nM. As for `COc1cc(NC(=O)COc2cc(O)c3c(c2)OC(C)(C)CC3=O)cc(OC)c1OC`, the AC50 is 354 nM. For the compound `O=C(Nc1nc(-c2ccccn2)cs1)c1cccc(S(=O)(=O)N2CCOCC2)c1`, the AC50 was 1520 nM. For `COc1ccc(/C=C/C(=O)c2ccc(C(=O)/C=C/c3ccc(OC)c(OC)c3)cc2)cc1OC`, the concentration at half-maximal activity (AC50) was 5180 nM.

Take `CCCN1C(=O)S/C(=C\c2ccc(N3CCOCC3)o2)C1=O`: the half-maximal activity concentration (AC50) was 6370 nM. For `CC(C)c1ccc(Oc2cccc3c2S(=O)(=O)N(C2CCCC2)CC(COCc2ccccc2)O3)cc1` (centres undefined), the AC50 was 15500 nM. On to `COc1ccc(-c2csc(NC(=O)C3CCN(c4ncnc5sc(C)c(C)c45)CC3)n2)cc1OC`, for which the AC50 is 1420 nM.

As for `CC(=O)N1CCOc2cc(S(=O)(=O)NCc3ccc(F)cc3)c(C)cc21`, the AC50 is > 70000 nM (inactive). On to `CCN(CC)S(=O)(=O)c1ccc(-c2ccc(S(=O)(=O)N(CC)CC)cc2)cc1`, for which the half-maximal activity concentration (AC50) is 3810 nM.

In the case of `COc1ccc(-n2nnnc2S(=O)(=O)CC(=O)N2CCCCC2)cc1`, the AC50 was 5440 nM. In the case of `COc1ccc(C2/C=C\CN(S(=O)(=O)c3ccc(C)cc3)[C@H](Cc3ccccc3)C(=O)N2Cc2ccc(F)cc2)cc1` (some centres undefined), the concentration at half-maximal activity (AC50) was 12900 nM.

As to `CN(C)c1ccc(C=c2c3cc([N+](=O)[O-])ccc3n3c2cc(-c2ccccc2)[n+]3C)cc1`, the AC50 is 3300 nM. As for `COCCn1c(SCC(=O)/C=C2\N(C)c3ccccc3C2(C)C)nnc1-c1ccncc1`, the figure is 2650 nM; as for `COc1ccc(NC(=O)C2Cc3c(-c4cccc(C(C)=O)c4)ccnc3O2)cc1OC` (centres undefined), 799 nM.

On to `CN(C)c1ccc(/C=C/c2nc3ccccc3s2)cc1`, for which the concentration at half-maximal activity (AC50) was 494 nM. For `COC(=O)C1=C(c2ccc(OCc3ccccc3)cc2)C[C@@H]2CC[C@H]1N2C(=O)NCCCCc1ccccc1`, the AC50 was 2800 nM. As to `CNS(=O)(=O)c1cccc(C(=O)OCc2cc(C(C)=O)ccc2OC)c1`, the AC50 was 11200 nM. The result for `COc1ccc(CCN2C(=O)CSC2=Nc2ccc(C(C)C)cc2)cc1OC` reads 4490 nM; that for `COc1ccc(CCNC(=O)CCC(=O)N2CCOc3ccc(Cl)cc32)cc1OC`, > 70000 nM (inactive). As for `CCOc1ccc(-n2c(-c3ccccc3)c[n+]3c2CCC3)cc1`, the AC50 was 526 nM. As for `NC1=NC[C@@H](CC2CCCCC2)N1CCc1cc(C(F)(F)F)cc(C(F)(F)F)c1`, the figure is 9920 nM; as for `Cc1nc2ccccc2n1Cc1ccc(Cl)cc1`, 1460 nM. Turning to `CC(=O)OCC(=O)[C@@]1(O)CC[C@H]2[C@@H]3CCC4=CC(=O)CC[C@]4(C)[C@H]3C(=O)C[C@@]21C`, the AC50 was 28300 nM. Regarding `O=C(c1nnsc1S(=O)(=O)c1ccc(Cl)cc1)N1CCOCC1`, the AC50 is 7740 nM. The result for `Cc1ccc(CC(=O)Nc2ccncc2)cc1` reads 2390 nM; that for `CCC(=O)c1cn(CC(=O)Nc2ccccc2Cl)c2ccccc12`, below 260 nM; that for `CC(C)(C)NC(=O)NC(=O)CN1CCN(c2ccc(O)cc2)CC1`, 1900 nM. As to `CCOC(=O)N1CCC(NC(=O)C2CCCN(Cc3nc(-c4cccc(Cl)c4)oc3C)C2)CC1` (centres undefined), the AC50 was 9500 nM. With `CCN1CCN(Cc2ccc(NC(=O)c3ccc(C)c(NC(=O)C(=O)c4c[nH]c5ccccc45)c3)cc2C(F)(F)F)CC1`, the AC50 was 7490 nM. As for `O=[N+]([O-])c1cc(S(=O)(=O)C(F)(F)F)ccc1Sc1nc2ccccc2s1`, the figure is 2450 nM. Regarding `Cc1cccc(Cn2c(NCCO)nc3c2c(=O)n(C)c(=O)n3C)c1`, the AC50 is 528 nM. For the compound `CS(=O)(=O)c1ncc(Cl)c(C(=O)Nc2ccc(OC(F)F)cc2)n1`, the AC50 is 682 nM. Turning to `CC(=O)N1c2ccc(S(=O)(=O)N3CCC(C(=O)N4CCN(c5cc(Cl)ccc5C)CC4)CC3)cc2CC1C` (centres undefined), the AC50 was 3100 nM. As for `CN1/C(=C\C=C2/SC(=S)NC2=O)C(C)(C)c2ccccc21`, the figure is 2600 nM; as for `COC(=O)c1ccc(COC(=O)c2[nH]c(C)c(C(C)=O)c2C)o1`, 2580 nM; as for `Cc1ccc(S(=O)(=O)N2[C@H](c3cccc(Cl)c3)CC(=O)[C@@H]3CN(S(=O)(=O)c4ccccc4C)[C@H](c4ccc(Cl)cc4)C[C@@H]32)cc1`, 289 nM. Turning to `COc1ccc(-c2nc(NC(=O)C3CC(=O)N(c4ccc5c(c4)OCCO5)C3)sc2C)cc1` (centres undefined), the AC50 was 5240 nM. With `C[C@@H]1COC(=O)[C@@H](NC(=O)OCC2c3ccccc3-c3ccccc32)C/C=C\C[C@@H](CC(=O)N(CCO)Cc2ccccc2)C(=O)N1`, the AC50 is 1890 nM. In the case of `COc1cc(NC(=O)NCc2ccco2)ccc1-c1ccc(NC(=O)NCc2ccco2)cc1OC`, the AC50 was 3190 nM. As to `Cc1ccccc1OCCn1cc(C(=S)N2CCCC2)c2ccccc21`, the AC50 is 24300 nM. Turning to `Cc1ccccc1C(=O)N1CCN(c2ccc(NC(=O)c3ccc([N+](=O)[O-])o3)cc2)CC1`, the AC50 was 864 nM. As for `CC(C)N=C(N)N=C(N)Nc1ccc(Cl)cc1`, the figure is 370 nM. With `CCCCC(=O)NC(c1ccccc1OC)c1ccc2cccnc2c1O` (centres undefined), the AC50 was 1190 nM.

Turning to `CCN(CC)S(=O)(=O)c1cc(NC(=O)CNc2cccc(S(=O)(=O)N3CCOCC3)c2)ccc1C`, the AC50 is 2970 nM. As for `O=C(Nc1ccc(Oc2ccccc2)cc1)C1CCN(c2c3c(nc4ncnn24)CCC3)CC1`, the figure is 5640 nM. Consider `CCc1nc(N)nc(N)c1-c1ccc(N(C)Cc2ccccc2)c([N+](=O)[O-])c1`, for which the AC50 is below 260 nM.

Turning to `Oc1cc(Nc2ccccc2)cc2cccnc12`, the AC50 was 1790 nM. As for `O=C(Nc1ccc(-c2nc3ncccc3o2)cc1)c1ccc([N+](=O)[O-])o1`, the AC50 is 1340 nM. For `C=CCn1c(SCC(=O)c2[nH]c(C)c(C(=O)OC)c2C)nc2scc(-c3ccc(OC)c(OC)c3)c2c1=O`, the half-maximal activity concentration (AC50) is 2010 nM.

On to `Fc1ccc2[nH]c3c(N4CCc5ccccc5C4)ncnc3c2c1`, for which the AC50 was 466 nM. Regarding `O=C(NNC(=S)Nc1ccc(Cl)c(Cl)c1)c1ccccn1`, the AC50 was 2330 nM. The result for `COC(=O)C12OCC34C(CC5C(C)=C(O)C(=O)CC5(C)C3C(O)C1O)OC(=O)C(OC(=O)C=C(C)C)C24` (centres undefined) reads below 260 nM; that for `COC(=O)[C@@]12CCCCN1[C@H](c1ccc(SC3CCCCC3)c(OC)c1)[C@@H]1C(=O)N(C)C(=O)[C@@H]12`, 21400 nM. As to `Cc1sc2ncnc(N3CCN(CCOc4ccc(Cl)cc4)CC3)c2c1C`, the AC50 is 1350 nM.
